Consider 4 compounds from ChEMBL document CHEMBL3046747, “Assessment of species specificity of moulting accelerating compounds in Lepidoptera: comparison of activity between Bombyx mori and Spodoptera littoralis by in vitro reporter and in vivo toxicity assays” (Pest Manag Sci, 2010).

The source made the active and inactive calls. The calls are words filed in the database; no cut-off is given here. Some results are limits rather than exact numbers.

One data set concerns Spodoptera littoralis. The experiment in a line: Cytotoxicity against Spodoptera littoralis Sl2 cells assessed as cell viability after 24 hr by MTT assay. To be noted: read-out: pLC50 (converted).
Data set [1] has as its target T1, Ecdysone receptor (Bombyx mori) (UniProt P49881).
T1 sequence (whole entry): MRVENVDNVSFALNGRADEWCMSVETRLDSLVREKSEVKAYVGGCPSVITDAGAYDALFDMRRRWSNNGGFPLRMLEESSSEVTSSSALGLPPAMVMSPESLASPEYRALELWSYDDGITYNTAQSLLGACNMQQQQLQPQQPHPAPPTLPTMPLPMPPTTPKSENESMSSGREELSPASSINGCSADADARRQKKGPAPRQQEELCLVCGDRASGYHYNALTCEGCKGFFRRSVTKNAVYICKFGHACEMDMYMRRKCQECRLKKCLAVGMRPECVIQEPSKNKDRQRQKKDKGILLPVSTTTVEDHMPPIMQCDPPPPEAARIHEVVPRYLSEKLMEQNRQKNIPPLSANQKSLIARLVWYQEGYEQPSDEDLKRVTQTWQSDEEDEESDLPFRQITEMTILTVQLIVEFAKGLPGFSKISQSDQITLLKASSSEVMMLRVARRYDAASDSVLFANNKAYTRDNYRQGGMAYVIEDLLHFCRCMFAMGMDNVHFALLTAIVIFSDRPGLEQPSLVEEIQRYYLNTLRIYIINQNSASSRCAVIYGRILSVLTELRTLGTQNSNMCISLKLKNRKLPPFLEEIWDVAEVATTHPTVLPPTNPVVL
Description: Agonist activity at ecdysone receptor in Bombyx mori Bm5 cells after 24 hr by luciferase reporter gene assay relative to tebufenozide. It counts as cell-based.

The target of data set [2] is T2, Ecdysone receptor (Bombyx mori, UniProt P49881).
T2 sequence (P49881 whole entry): T1 sequence (whole entry)
The experiment in a line: Antagonist activity at ecdysone receptor in Bombyx mori Bm5 cells assessed as tebufenozide-induced effect treated 24 hr before tebufenozide challenge measured after 24 hr by luciferase reporter gene assay. It counts as cell-based. (A reporter such as luciferase makes a cellular process visible.)

In data set [3] the target is T3, Ecdysone receptor (Spodoptera littoralis, UniProt E3UJZ5).
T3 sequence (E3UJZ5 whole entry): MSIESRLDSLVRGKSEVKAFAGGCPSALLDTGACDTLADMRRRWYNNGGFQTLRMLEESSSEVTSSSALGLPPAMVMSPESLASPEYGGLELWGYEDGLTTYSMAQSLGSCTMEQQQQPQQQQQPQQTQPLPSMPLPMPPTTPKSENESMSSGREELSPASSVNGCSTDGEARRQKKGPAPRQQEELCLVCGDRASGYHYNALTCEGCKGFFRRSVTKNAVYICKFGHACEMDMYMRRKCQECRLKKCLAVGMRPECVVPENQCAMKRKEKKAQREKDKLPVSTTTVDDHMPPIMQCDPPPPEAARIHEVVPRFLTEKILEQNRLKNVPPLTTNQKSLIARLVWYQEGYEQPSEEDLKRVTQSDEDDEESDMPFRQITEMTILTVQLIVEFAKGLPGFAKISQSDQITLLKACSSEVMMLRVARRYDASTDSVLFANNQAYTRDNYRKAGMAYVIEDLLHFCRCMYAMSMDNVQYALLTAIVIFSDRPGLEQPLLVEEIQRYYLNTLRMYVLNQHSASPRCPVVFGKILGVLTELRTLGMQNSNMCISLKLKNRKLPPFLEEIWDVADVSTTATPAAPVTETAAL
Description: Antagonist activity at ecdysone receptor in Spodoptera littoralis Sl2 cells assessed as tebufenozide-induced effect treated 24 hr before tebufenozide challenge measured after 24 hr by luciferase reporter gene assay. It counts as cell-based.

Data set [4] addresses T4, Ecdysone receptor (Spodoptera littoralis) (UniProt E3UJZ5).
T4 sequence (whole entry): T3 sequence (E3UJZ5 whole entry)
The experiment in a line: Agonist activity at ecdysone receptor in Spodoptera littoralis Sl2 cells after 24 hr by luciferase reporter gene assay relative to tebufenozide. In kind it is cell-based.

Data set [5] concerns the target T3, Ecdysone receptor. Description: Agonist activity at ecdysone receptor in Spodoptera littoralis Sl2 cells after 24 hr by luciferase reporter gene assay. In kind it is cell-based.
Data set [6] can be described thus: Cytotoxicity against Bombyx mori Bm5 cells assessed as cell viability after 24 hr by MTT assay. In kind it is cell-based. To be noted: read-out: pLC50 (converted). In general terms: Formazan colour is commonly taken as a measure of viable cells.
Data set [7] can be described thus: Ratio of IC50 for ecdysone receptor in Spodoptera littoralis Sl2 cells to LC50 for Spodoptera littoralis Sl2 cells.
Data set [8] addresses T2, Ecdysone receptor. Description: Agonist activity at ecdysone receptor in Bombyx mori Bm5 cells after 24 hr by luciferase reporter gene assay. In kind it is cell-based.
Data set [9] is described as follows: Selectivity ratio of EC50 for ecdysone receptor in Bombyx mori Bm5 cells to EC50 for ecdysone receptor in Spodoptera littoralis Sl2 cells. In kind it is cell-based.
The nature of data set [10]: Ratio of IC50 for ecdysone receptor in Bombyx mori Bm5 cells to LC50 for Bombyx mori Bm5 cells.
Data set [11] concerns the target T4, Ecdysone receptor (Spodoptera littoralis). Description: Agonist activity at ecdysone receptor in Spodoptera littoralis Sl2 cells at 200 uM after 24 hr by luciferase reporter gene assay. In kind it is cell-based.
The target of data set [12] is T1, Ecdysone receptor (Bombyx mori). The experiment in a line: Agonist activity at ecdysone receptor in Bombyx mori Bm5 cells at 200 uM after 24 hr by luciferase reporter gene assay. It counts as cell-based.

One may read the IC50 as the concentration that gives 50% inhibition. As for `CCc1ccc(C(=O)NC(C(=O)c2cc(C)cc(C)c2)C(C)(C)C)cc1` (stereo not given), the CC50 at 24 h with Spodoptera littoralis is over 501 µM; in data set [6], 38.9 µM. In addition, the Efficacy in data set [1] turned out to be 11%; in data set [4] it was 17%. Besides, the half-maximal inhibitory concentration (IC50) was 28.2 µM on Ecdysone receptor [2] and 24 µM on Ecdysone receptor [3]. The figures for the EC50 on Ecdysone receptor [5] (read-out: pEC50 (converted)) and at Ecdysone receptor [8] (read-out: pEC50 (converted)) were 46.8 µM and 35.5 µM, respectively. For the same compound, the Ratio in data set [7] is reported as under 0.05; in data set [10] it was 0.72. For the same compound, the Ratio EC50 in data set [9] amounted to 0.76.

For `CCOc1ccccc1C(=O)N(NC(=O)c1ccccc1)C(C)(C)C`, the result in data set [11] and in data set [12] was inactive.

Consider `CCOc1ccccc1C(=O)N(NC(=O)c1ccc([N+](=O)[O-])cc1)C(C)(C)C`, for which the outcome in data set [11] and in data set [12] was inactive.

By pEC50 is commonly meant −log10 of the EC50, conventionally taken in molar units. A high value points to a low EC50. In the case of `Cc1cc(C)cc(C(=O)C2(NC(=O)C(F)(F)F)CCCCC2)c1`, the CC50 at 24 h with Spodoptera littoralis was over 501 µM; in [6] it was 234 µM. In addition, the values for the Efficacy in [1] and in data set [4] were 6% and 17%, respectively. Also, the values for the IC50 on Ecdysone receptor [2] and at Ecdysone receptor [3] were 67.6 µM and 16.2 µM, respectively. For the same compound, the pEC50 on Ecdysone receptor [5] (sl2) and on Ecdysone receptor [8] was over 4 in each case. For the same compound, the Ratio in data set [7] is under 0.04; in data set [10] it was 0.29.
